Read-outs that look alike come from different tables or passages of the source.
Columns and labels:
[1] = system: CA3-CA1 connections in hippocampal slices; assay: Electrophysiology in Wt hippocampal slices (fEPSP, PPF, LTP, LTD); format: cell-based, mice
Method: Slice Preparation and Electrophysiology. […] Slices were transferred to an experimental chamber (2 ml), superfused (3 ml/min, at 20-22° C.) with gassed ACSF and visualized by trans-illumination with a binocular microscope (MSZ-10, Nikon, Melville, N.Y.). To evoke field excitatory postsynaptic potentials (fEPSPs), we stimulate with bipolar concentric electrodes (Platinum/Iridium, 125 μm OD diameter, FHC Inc., Bowdoin, Me.) generated by a stimulator (Axon 700b, Molecular Devices, Sunnyvale, Calif.) and connected to an isolation unit (Isoflex, AMPI, Jerusalem, Israel) . The stimulation was in the Stratum Radiatum within 100-200 μm from the recording site. The paired pulse facilitation index was calculated by ((R2−R1)/R1), where R1 and R2 were the peak amplitudes of the first and second fEPSP respectively. To generate LTP we used Theta Burst Stimulation (TBS) consisting of 5 trains of stimulus with an inter-train interval of 20 s. Each train consisted of 10 bursts at 5 Hz and each burst having 4 pulses at 100 Hz. To generate LTD we used Low Frequency Stimulation (LFS) consisting in 900 paired pulses at 1 Hz. Recordings were filtered at 2.0-3.0 kHz, sampled at 4.0 kHz using an A/D converter, and stored with pClamp 10 (Molecular Devices). Evoked postsynaptic responses were analyzed off-line, using an analysis software (pClampfit, Molecular Devices), which allowed visual detection of events, computing only those events that exceeded and arbitrary threshold.

[2] = Side effects in treated animals; details: in vivo
[3] = system: AT8-positive neurons in APPswe/PS-1 mice; assay: AT8 immunohistochemistry in treated APPswe/PS-1 mice; format: in vivo
[4] = target: T1, Immunoprecipitated GSK-3β from hippocampus of wild-type mice (Mus musculus, UniProt Q9WV60); assay: Luminometric GSK-3β activity assay; format: biochemical
T1 construct: the hippocampus of two month-old wild-type mice were lysed in immunoprecipitation buffer; from tissue; host or cells: hippocampus of two-month-old wild-type mice, immunoprecipitated with anti-GSK-3β antibody (Santa Cruz Biotechnology) on protein G beads
T1 sequence (Q9WV60 whole entry): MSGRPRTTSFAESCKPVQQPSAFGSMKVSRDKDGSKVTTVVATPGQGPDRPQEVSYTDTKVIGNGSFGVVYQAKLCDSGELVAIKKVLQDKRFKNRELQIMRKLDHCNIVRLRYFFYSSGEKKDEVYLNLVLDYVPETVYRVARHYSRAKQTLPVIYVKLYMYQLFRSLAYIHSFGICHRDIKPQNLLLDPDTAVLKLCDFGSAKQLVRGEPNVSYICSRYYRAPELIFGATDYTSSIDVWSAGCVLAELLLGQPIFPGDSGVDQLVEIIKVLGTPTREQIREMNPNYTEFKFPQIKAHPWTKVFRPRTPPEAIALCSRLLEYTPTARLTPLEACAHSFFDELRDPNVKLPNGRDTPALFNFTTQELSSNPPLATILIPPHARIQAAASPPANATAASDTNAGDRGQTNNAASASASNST
Method: Immunoprecipitation. The immunoprecipitation was performed as previously described (Garrido et al, 2002). Briefly, the hippocampus of two month-old wild-type mice were lysed in immunoprecipitation buffer (25 mM HEPES pH 7.4, 125 mM NaCl, 25 mM NaF, 1 mM EDTA, 1 mM EGTA, 1% NP-40) including phosphatase inhibitors (1 mM NaVO3 and 200 nM okadaic acid) and the protease inhibitor cocktail described above. 200 μg of total proteins from lysate were precleared by using protein G-Sepharose beads (Santa Cruz Biotechnology) for 1 h at 4° C. and then were incubated with anti-GSK-3β antibody (Santa Cruz Biotechnology) and new protein G beads for 4 h at 4° C. The immunocomplexes were finally pelleted and washed three times with cold immunoprecipitation buffer.
GSK-3β activity assay. IC50 of ANDRO was determined by a luminometric GSK-3β activity assay. […] Briefly, ANDRO was tested at different concentrations and diluted in kinase buffer containing final concentrations of: 40 mM Tris pH 7.5; 20 mM MgCl2; 0,1 mg/ml BSA. Diluted ANDRO was added to 25 μM pGS-2 peptide substrate (Millipore, Billerica, USA), immunoprecipited GSK-3β and 10 μM ATP (Cell Signaling, Boston, USA) to a total assay volume of 50 μl. The enzymatic reaction was stopped after 10 min of incubation to room temperature by adding 50 μl Kinase Glo (Promega, Madison, USA). The luminometric signal was allowed to stabilize for 10 min and the measured with a Luminometer TURNER DESIGNS model TD-2020.
Immunoprecipitated GSK-3β from hippocampus of wild-type mice was incubated with ATP and pGS-2 peptide substrate for 5 min, then the reaction was stopped and the kinase activity was determined in a luminometer.

HEK293T cells = assay: TOP/FOP flash luciferase reporter assay; format: cell-based
Method: Luciferase Assay. 150,000 HEK293T cells were seeded in triplicate per condition and kept for 24 hours at 37° C. with 5% CO2. The cultures were transfected with TOPflash or FOPflash (400 ng), which are firefly-luciferase reporter DNA constructs (Milipore), using LipofectAMINE 2000 (Invitrogen). To control for transfection pRL-TK (10 ng) was included in all transfections. […] Values were normalized by the renilla value from the same well. To statistically compare treatments ANOVA was used.

[5] = system: tau phosphorylation in the hippocampus of APPswe/PS-1 mice; assay: Tau phosphorylation immunoblot (PHF-1, AT8) in treated APPswe/PS-1 mice; format: in vivo; details: hippocampus of 6 month-old APPswe/PS-1 mice, vs untreated
[6] = system: APPswe/PS-1 double transgenic mice; assay: Memory flexibility test (modified Morris Water Maze); format: in vivo; details: 7-month-old APPswe/PS-1 mice, 2.0 mg/kg IP three times per week, four weeks, vs Tg control

- IC50 ([4]; different concentrations of ATP, read-out: IC50 using different concentrations of ATP): ~5.58 µM
- IC50 with increased substrate concentration ([4]; different concentrations of the substrate): increase in the IC50
- IC50 ([4]; preincubation 10 min, 10 μM ATP, 25 μM pGS-2 peptide substrate, read-out: IC50 of GSK-3β activity): 5.58 µM
SMILES: C=C1CC[C@@H]2C(C)(CO)[C@H](O)CC[C@@]2(C)C1C/C=C1/C(=O)OC[C@H]1O (stereo in doubt) [ANDRO, 3-(2-(Decahydro-6-hydroxy-5-(hydroxymethyl)-5,8a-dimethyl-2-methylenenaphthyl)ethylidene)dihydro-4-hydroxyfuran-2(3H)-one]
- fEPSP amplitude (basal synaptic transmission) ([1]; ANDRO (5 μM), 30 min, Wt slices): increased the fEPSP amplitude
- paired pulse facilitation (PPF) ratio ([1]; Wt slices): does not increase PPF ratio
- LTP induction or maintenance ([1]; Wt slices in presence of ANDRO, TBS): do not observed alteration in the LTP induction or maintenance
- induction of LTD (fEPSP slope after LFS) ([1]; hippocampal slices, 6-BIO 10 nM): LTD was inhibited
- side effects in animals [2]: seems not to cause side effects in animals
- number of AT8-positive neurons next to amyloid deposits ([3]; 6 month-old APPswe/PS-1 mice, circular area surrounding plaques): clear decrease in the number of AT8-positive neurons
- total AT8-positive cells outside the circular area around the plaques ([3]; hippocampus): decrease in the number of these cells
- TOPflash reporter activity (HEK293T cells; ANDRO 10 μM or 6-BIO 10 nM, 24 h): significant increase
- increase of luciferase reporter over control (HEK293T cells; TOPflash, HEK293T): 4 fold
- PHF-1- and AT8-positive tau levels [5]: reduction in PHF-1- and AT8-positive tau levels
- number of trial to criterion of learning [6]: reduction in the number of trial to criterion of learning
